We go through 1 molecule from patent US9180111B2, “Reduction in complement activation and inflammation during tissue injury by carotenoids, carotenoid analogs, or derivatives thereof” (Cardax Pharma, Inc., priority 2005, dated 2015).

The nature of the series: Determination of aqueous solubility/dispersibility. Format: physicochemical. The note with it: deionized water. The protocol:
(§1) 30.13 mg of 3 was added to 1 mL of USP-purified water. The sample was rotated for 2 hours, then centrifuged for 5 minutes. After centrifuging, solid was visible in the bottom of the tube. A 125-μL aliquot of the solution was then diluted to 25 mL. The sample was analyzed by UV/Vis spectroscopy at 436 nm, and the absorbance was compared to a standard curve compiled from 4 standards of known concentration. The concentration of the original supernatant was calculated to be 2.85 mg/mL and the absorptivity was 36.94 AU*mL/cm*mg. Slight error may have been introduced by the small size of the original aliquot.
as §1, with “Next, 30.80” for “30.13”, “9” for “3”, “411” for “436”, “29.27” for “2.85”, “2.90” for “36.94”

With `CC1=C(/C=C/C(C)=C/C=C/C(C)=C/C=C/C=C(C)/C=C/C=C(C)/C=C/C2=C(C)C(=O)C(OC(=O)CCC(=O)O)CC2(C)C)C(C)(C)CC(OC(=O)CCC(=O)O)C1=O` (stereo not shown) [DDA, disodium disuccinate astaxanthin], the maximum aqueous dispersibility result is reported as “greater than 10 mM”.
